{"source": "ChEMBL document CHEMBL1157159", "about": "“Ester derivatives of gallic acid with potential toxicity toward L1210 leukemia cells” (Bioorg Med Chem, 2008)", "key": {"[1]": {"test_system": "L1210", "assay": "Cytotoxicity against mouse L1210 cells after 48 hrs by MTT assay", "assay_type": "functional, cell-based", "conditions": "L1210, 48 h"}, "[2]": {"test_system": "L1210", "assay": "Cytotoxicity against mouse L1210 cells after 72 hrs by MTT assay", "assay_type": "functional, cell-based", "conditions": "L1210, 72 h"}, "[3]": {"test_system": "CCRF-CEM", "assay": "Cytotoxicity against human CEM cells after 24 hrs by MTT assay", "assay_type": "functional, cell-based"}, "[4]": {"test_system": "CCRF-CEM", "assay": "Cytotoxicity against human CEM cells after 72 hrs by MTT assay", "assay_type": "functional, cell-based"}, "[5]": {"test_system": "L1210", "assay": "Decrease in mitochondrial glutathione level in mouse L1210 cells", "assay_type": "functional, cell-based"}, "[6]": {"test_system": "L1210", "assay": "Decrease in cytoplasmic glutathione level in mouse L1210 cells at 100 uM", "assay_type": "functional", "parameters": "scale not given: the % may be the effect or the level left"}, "[7]": {"assay": "Genotoxicity against african green monkey VERO cells", "assay_type": "toxicity, cell-based", "conditions": "African green monkey (Chlorocebus sabaeus)"}, "[8]": {"test_system": "L1210", "assay": "Decrease in cytoplasmic glutathione level in mouse L1210 cells", "assay_type": "functional, cell-based"}, "[9]": {"test_system": "Vero", "assay": "Cytotoxicity against african green monkey VERO cells", "assay_type": "cell-based", "conditions": "Chlorocebus sabaeus"}, "[10]": {"test_system": "L1210", "assay": "Induction of apoptosis in mouse L1210 cells assessed as internucleosomal breakdown of DNA chromatin at 30 uM", "assay_type": "functional, cell-based"}, "[11]": {"test_system": "CCRF-CEM", "assay": "Induction of apoptosis in human CEM cells assessed as internucleosomal breakdown of DNA chromatin at 30 uM", "assay_type": "functional, cell-based"}, "[12]": {"test_system": "L1210", "assay": "Induction of apoptosis in mouse L1210 cells assessed as internucleosomal breakdown of DNA chromatin at 100 uM", "assay_type": "functional, cell-based"}, "[13]": {"test_system": "CCRF-CEM", "assay": "Induction of apoptosis in human CEM cells assessed as internucleosomal breakdown of DNA chromatin at 100 uM", "assay_type": "functional, cell-based"}}, "note": "Activity calls are given as the source filed them. No cut-off for these calls is given here."}
{"smiles": "O=C(O)c1cc(O)c(O)c(O)c1", "note": "[GALLIC ACID]", "values": [{"measurement": "IC50", "setting": "[1]", "result": "> 50", "unit": "µM"}, {"measurement": "IC50", "setting": "[2]", "result": 50, "unit": "µM"}, {"measurement": "IC50", "setting": "[3]", "result": "> 50", "unit": "µM"}, {"measurement": "IC50", "setting": "[4]", "result": "> 50", "unit": "µM"}, {"measurement": "Activity", "setting": "[5]", "result": "Active"}, {"measurement": "Activity", "setting": "[6]", "result": 75, "unit": "%"}, {"measurement": "IC50", "setting": "[7]", "result": "> 299", "unit": "µM"}, {"measurement": "Activity", "setting": "[8]", "result": "Active"}, {"measurement": "IC50", "setting": "[9]", "result": "> 1", "unit": "µM"}, {"measurement": "Activity", "setting": "[10]", "result": "Active"}, {"measurement": "Activity", "setting": "[11]", "result": "Active"}, {"measurement": "Activity", "setting": "[12]", "result": "Active"}, {"measurement": "Activity", "setting": "[13]", "result": "Active"}]}
